In patent publication US7947676B2, “Pyrazolo[3,4-d]pyrimidine compounds as antitumor agents” (AstraZeneca AB, priority 2004, dated 2011):

Legend:
[1] = target: T1, EGFR tyrosine kinase (Homo sapiens, UniProt P00533); assay: Protein tyrosine kinase phosphorylation assay, Test (a), EGFR; type: biochemical; conditions: recombinant intracellular fragment, ATP at Km concentration; read-out: IC50 (μM) Test (a): Inhibition of EGFR tyrosine kinase protein phosphorylation
T1 construct: Recombinant intracellular fragments of EGFR, erbB2 and erbB4; made in house; host or cells: baculovirus/Sf21 insect cells (cleared lysate)
T1 sequence (P00533 669-1210 limits assumed): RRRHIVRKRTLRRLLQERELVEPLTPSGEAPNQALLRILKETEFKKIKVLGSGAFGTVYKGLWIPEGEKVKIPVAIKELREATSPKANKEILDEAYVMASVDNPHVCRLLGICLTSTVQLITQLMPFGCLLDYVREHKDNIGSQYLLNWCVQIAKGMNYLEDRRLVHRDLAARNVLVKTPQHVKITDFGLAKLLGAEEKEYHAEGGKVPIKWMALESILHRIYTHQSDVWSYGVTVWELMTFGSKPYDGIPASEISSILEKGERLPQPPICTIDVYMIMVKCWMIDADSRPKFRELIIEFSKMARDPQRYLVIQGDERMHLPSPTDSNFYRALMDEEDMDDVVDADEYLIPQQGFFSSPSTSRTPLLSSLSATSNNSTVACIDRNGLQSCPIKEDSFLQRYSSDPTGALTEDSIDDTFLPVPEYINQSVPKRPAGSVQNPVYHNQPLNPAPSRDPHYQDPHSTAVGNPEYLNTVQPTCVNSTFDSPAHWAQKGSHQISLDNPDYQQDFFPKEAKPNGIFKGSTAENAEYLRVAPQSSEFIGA
Description: (§1) This test measures the ability of a test compound to inhibit the phosphorylation of a tyrosine containing polypeptide substrate by EGFR, erbB2 and erbB4 tyrosine kinase enzyme.
(§2) Recombinant intracellular fragments of EGFR, erbB2 and erbB4 (accession numbers X00588, X03363 and L07868 respectively) were cloned and expressed in the baculovirus/Sf21 system. […]
(§3) Constitutive kinase activity of these recombinant proteins was determined by their ability to phosphorylate a synthetic peptide (made up of a random co-polymer of Glutamic Acid, Alanine and Tyrosine in the ratio of 6:3:1). […]
(§4) The immobilised phospho-peptide product of the reaction was detected by immunological methods. […] After further washing, HRP activity in each well of the plate was measured colorimetrically using 22′-Azino-di-[3-ethylbenzthiazoline sulfonate (6)] diammonium salt crystals (ABTS™ from Roche) as a substrate.
(§5) Kinase inhibition for a given compound was expressed as an IC50 value. […] The range of phosphorylation was calculated from the positive (vehicle plus ATP) and negative (vehicle minus ATP) control values.

[2] = target: T2, erbB2 (Homo sapiens, UniProt P04626); assay: Clone 24 phospho-erbB2 cell assay, Test (d); type: cell-based; conditions: MCF7 derived cell line (Clone 24) overexpressing erbB2, 4 hours; read-out: IC50 (μM) Test (d): Inhibition of phosphorylation of erbB2
T2 construct: to give a cell line that overexpresses full length wild type erbB2 protein; expressed in transfected cells; host or cells: MCF7 (breast carcinoma) derived 'Clone 24' cells
T2 sequence (P04626 23-1255): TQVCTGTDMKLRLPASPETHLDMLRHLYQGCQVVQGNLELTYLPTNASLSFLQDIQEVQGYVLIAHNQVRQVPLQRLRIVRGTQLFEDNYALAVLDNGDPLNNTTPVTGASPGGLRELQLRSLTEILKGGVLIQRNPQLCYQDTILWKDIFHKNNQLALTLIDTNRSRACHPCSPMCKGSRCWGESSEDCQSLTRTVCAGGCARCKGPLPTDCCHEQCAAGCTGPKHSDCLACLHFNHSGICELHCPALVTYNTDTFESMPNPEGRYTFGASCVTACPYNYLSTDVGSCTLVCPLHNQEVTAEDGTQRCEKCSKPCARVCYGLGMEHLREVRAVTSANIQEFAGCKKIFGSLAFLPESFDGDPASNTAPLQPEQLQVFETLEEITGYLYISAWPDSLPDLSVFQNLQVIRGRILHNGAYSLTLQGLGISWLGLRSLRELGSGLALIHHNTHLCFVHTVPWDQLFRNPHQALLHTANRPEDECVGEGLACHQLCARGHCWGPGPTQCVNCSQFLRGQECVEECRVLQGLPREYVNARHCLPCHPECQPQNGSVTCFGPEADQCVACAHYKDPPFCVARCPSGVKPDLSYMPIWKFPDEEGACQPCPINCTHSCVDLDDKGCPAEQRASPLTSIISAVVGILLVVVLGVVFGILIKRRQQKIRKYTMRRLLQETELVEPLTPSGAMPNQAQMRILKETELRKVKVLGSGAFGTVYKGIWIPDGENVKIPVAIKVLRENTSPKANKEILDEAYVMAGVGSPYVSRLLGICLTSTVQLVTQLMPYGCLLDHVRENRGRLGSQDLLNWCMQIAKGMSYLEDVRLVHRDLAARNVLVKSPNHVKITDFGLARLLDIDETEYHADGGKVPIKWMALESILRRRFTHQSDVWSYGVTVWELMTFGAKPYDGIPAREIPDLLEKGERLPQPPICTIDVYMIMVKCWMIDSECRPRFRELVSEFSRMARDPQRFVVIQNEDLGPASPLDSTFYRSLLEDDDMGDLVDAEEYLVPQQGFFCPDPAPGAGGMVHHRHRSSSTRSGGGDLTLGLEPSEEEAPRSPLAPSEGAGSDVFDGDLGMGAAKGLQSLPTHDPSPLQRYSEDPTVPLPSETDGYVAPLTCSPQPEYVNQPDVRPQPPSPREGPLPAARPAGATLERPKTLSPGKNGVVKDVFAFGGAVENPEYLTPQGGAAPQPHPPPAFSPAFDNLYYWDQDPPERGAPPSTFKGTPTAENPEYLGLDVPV
Description: The cells were resuspended in Growth Medium.
Plates were returned to the incubator for 4 hours and then 20 μl of 20% formaldehyde solution in PBS was added to each well and the plate was left at room temperature for 30 minutes. This fixative solution was removed with a multichannel pipette, 100 μl of PBS was added to each well and then removed with a multichannel pipette and then 50 μl PBS was added to each well. Plates were then sealed and stored for up to 2 weeks at 4° C.
Immunostaining was performed at room temperature. […] Then this primary antibody solution was removed from the wells using a plate washer followed by two 200 μl PBS/Tween 20 washes using a plate washer. […] From now onwards, wherever possible, plates were protected from light exposure, at this stage by sealing with black backing tape.
The Fluorescence signal is each well was measured using an Acumen Explorer Instrument (Acumen Bioscience Ltd.), a plate reader that can be used to rapidly quantitate features of images generated by laser-scanning. […] Fluorescence dose response data obtained with each compound was exported into a suitable software package (such as Origin) to perform curve fitting analysis. Inhibition of erbB2 phosphorylation was expressed as an IC50 value.

[3] = target: T3, erbB2 tyrosine kinase (Homo sapiens, UniProt P04626); assay: Protein tyrosine kinase phosphorylation assay, Test (a), erbB2; type: biochemical; conditions: recombinant intracellular fragment, ATP at Km concentration; read-out: IC50 (μM) Test (a): Inhibition of erbB2 tyrosine kinase protein phosphorylation
T3 construct: Recombinant intracellular fragments of EGFR, erbB2 and erbB4; made in house; host or cells: baculovirus/Sf21 insect cells (cleared lysate)
T3 sequence (P04626 676-1255 limits assumed): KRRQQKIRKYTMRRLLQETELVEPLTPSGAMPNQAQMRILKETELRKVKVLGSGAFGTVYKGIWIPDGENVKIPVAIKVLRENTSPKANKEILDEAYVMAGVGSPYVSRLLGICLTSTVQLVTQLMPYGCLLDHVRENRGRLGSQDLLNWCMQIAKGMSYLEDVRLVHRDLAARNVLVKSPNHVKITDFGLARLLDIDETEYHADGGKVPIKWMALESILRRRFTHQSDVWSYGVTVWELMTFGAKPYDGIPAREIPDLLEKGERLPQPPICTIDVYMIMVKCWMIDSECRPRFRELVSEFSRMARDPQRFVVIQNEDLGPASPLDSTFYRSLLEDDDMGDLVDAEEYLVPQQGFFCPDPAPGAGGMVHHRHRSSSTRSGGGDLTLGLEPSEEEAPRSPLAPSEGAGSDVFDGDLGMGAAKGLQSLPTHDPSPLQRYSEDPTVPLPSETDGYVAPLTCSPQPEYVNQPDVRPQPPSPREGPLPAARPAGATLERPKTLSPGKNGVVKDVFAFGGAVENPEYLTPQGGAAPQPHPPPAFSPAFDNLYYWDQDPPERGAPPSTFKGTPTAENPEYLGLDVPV
Description: as §1, §2, §3, §4, §5

For `Cc1ccc(Oc2ccc(Nc3ncnc4[nH]nc(OCCN5CCOCC5)c34)cc2C)cn1` [Example 42, N-{3-methyl-4-[(6-methylpyridin-3-yl)oxy]phenyl}-3-(2-morpholin-4-ylethoxy)-1H-pyrazolo[3,4-d]pyrimidin-4-amine], which IC50 [1] is on record?
Its IC50 is 0.71 µM.

And the IC50 [2]?
Its IC50 is 0.083 µM.

What about the IC50 [3] of the same compound?
The IC50 was 0.027 µM.
